Test results taken from ChEMBL document CHEMBL1122274, “Inhibitors of glycolic acid oxidase. 4-substituted 2,4-dioxobutanoic acid derivatives” (J Med Chem, 1983).

Key:
[1] = Acidic dissociation constant (pKa) determined in 50% aqueous ethanol; assay type: physicochemical
[2] = Acidic dissociation constant (pKa) determined in 50% aqueous ethanol;ND is defined as no-data.; assay type: physicochemical

pKa [1]: 3.34
pKa [2]: 3.34
Structure (SMILES): O=C(O)C(=O)CC(=O)c1ccc(-c2ccccc2)cc1
